According to PubChem BioAssay AID330 (DTP/NCI, 2004):
Where “and” joins values, the source holds several entries; their conditions need not be identical. Identical values can stand only once. Toxic doses and inconclusive results are not listed.

System: P388 leukemia ip, CD2F1 mice, survival T/C
Assay: NCI In Vivo Anticancer Drug Screen. Data for tumor model P388 Leukemia (intraperitoneal) in CD2F1 (CDF1) mice
Details: endpoint: median survival time, higher = longer survival
Method in brief: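 Mice carrying the transplanted tumor received test compound or vehicle. Survival was recorded in each group, and the value is the treated-group measurement divided by that of the vehicle-treated control group.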

[1] = dose: 100.0 mg/kg/injection, schedule: Q01DX005 (ip), vehicle: saline
[2] = dose: 200.0 mg/kg/injection, schedule: Q01DX005 (ip), vehicle: saline
[3] = dose: 60.0 mg/kg/injection, schedule: Q01DX005 (ip), vehicle: saline with Tween-80
[4] = dose: 120.0 mg/kg/injection, schedule: Q01DX005 (ip), vehicle: saline with Tween-80
[5] = dose: 240.0 mg/kg/injection, schedule: Q01DX005 (ip), vehicle: saline with Tween-80
[6] = dose: 12.5 mg/kg/injection, schedule: Q01DX009 (ip), vehicle: distilled water + Tween-80
[7] = dose: 25.0 mg/kg/injection, schedule: Q01DX009 (ip), vehicle: distilled water + Tween-80
[8] = dose: 50.0 mg/kg/injection, schedule: Q01DX009 (ip), vehicle: distilled water + Tween-80
[9] = dose: 100.0 mg/kg/injection, schedule: Q01DX009 (ip), vehicle: distilled water + Tween-80
[10] = dose: 200.0 mg/kg/injection, schedule: Q01DX009 (ip), vehicle: distilled water + Tween-80
[11] = dose: 12.5 mg/kg/injection, schedule: Q01DX009 (ip), vehicle: saline
[12] = dose: 25.0 mg/kg/injection, schedule: Q01DX009 (ip), vehicle: saline
[13] = dose: 50.0 mg/kg/injection, schedule: Q01DX009 (ip), vehicle: saline
[14] = dose: 50.0 mg/kg/injection, schedule: Q01DX005 (ip), vehicle: saline with Tween-80
[15] = dose: 50.0 mg/kg/injection, schedule: Q01DX005 (ip), vehicle: Klucel (hydroxypropylcellulose) (HPC)
[16] = dose: 100.0 mg/kg/injection, schedule: Q01DX005 (ip), vehicle: Klucel (hydroxypropylcellulose) (HPC)
[17] = dose: 100.0 mg/kg/injection, schedule: Q01DX005 (ip), vehicle: saline with Tween-80
[18] = dose: 200.0 mg/kg/injection, schedule: Q01DX005 (ip), vehicle: saline with Tween-80
[19] = dose: 100.0 mg/kg/injection, schedule: Q04DX002 (ip), vehicle: saline with Tween-80
[20] = dose: 200.0 mg/kg/injection, schedule: Q04DX002 (ip), vehicle: saline with Tween-80
[21] = dose: 400.0 mg/kg/injection, schedule: Q04DX002 (ip), vehicle: saline with Tween-80
[22] = dose: 200.0 mg/kg/injection, schedule: Q01DX005 (ip), vehicle: Klucel (hydroxypropylcellulose) (HPC)
[23] = dose: 100.0 mg/kg/injection, schedule: Q01DX009 (ip), vehicle: saline
[24] = dose: 200.0 mg/kg/injection, schedule: Q01DX009 (ip), vehicle: saline
[25] = dose: 50.0 mg/kg/injection, schedule: Q01DX009 (ip), vehicle: saline with Tween-80
[26] = dose: 100.0 mg/kg/injection, schedule: Q01DX009 (ip), vehicle: saline with Tween-80
[27] = dose: 200.0 mg/kg/injection, schedule: Q01DX009 (ip), vehicle: saline with Tween-80

In the case of `CCCCC(CCC)(CCC)CCN`, the T/C (dose: 2.5 mg/kg/injection, schedule: Q01DX009 (ip), vehicle: suspension in saline) is reported as 104 % of control and 105 % of control, the T/C (dose: 5.0 mg/kg/injection, schedule: Q01DX009 (ip), vehicle: suspension in saline) is reported as 100 % of control and 105 % of control and the T/C (dose: 10.0 mg/kg/injection, schedule: Q01DX009 (ip), vehicle: suspension in saline) is reported as 122 % of control and 97 % of control. The T/C (dose: 20.0 mg/kg/injection, schedule: Q01DX009 (ip), vehicle: suspension in saline) was 106 % of control.
With `CN(CC(=O)C(O)C(O)C(O)CO)c1ccccc1` (stereo unspecified) the T/C (dose: 50.0 mg/kg/injection, schedule: Q01DX005 (ip), vehicle: saline) was 99 % of control, the T/C [1] was 100 % of control and the T/C [2] was 100 % of control.
`[Cl][Zr][Cl].[c-]1[c-][c-][c-](Cc2ccccc2)[c-]1.[c-]1[c-][c-][c-](Cc2ccccc2)[c-]1` was tested, and the T/C (dose: 3.12 mg/kg/injection, schedule: Q01DX009 (ip), vehicle: saline with Tween-80) was 104 % of control, the T/C (dose: 6.25 mg/kg/injection, schedule: Q01DX009 (ip), vehicle: saline with Tween-80) was 89 % of control and the T/C (dose: 12.5 mg/kg/injection, schedule: Q01DX009 (ip), vehicle: saline with Tween-80) was 86 % of control.
With `COc1ccc(-c2[nH]c(=O)c(C#N)c(C(=O)NN)c2-c2ccc(OC)cc2)cc1` the T/C [3] was 112 % of control, the T/C [4] was 100 % of control and the T/C [5] was 89 % of control.
`CCOC(=O)c1[nH]c(=O)[nH]c(=O)c1I` was tested, and the T/C [6] was 97 % of control, the T/C [7] was 105 % of control and the T/C [8] was 106 % of control. The T/C [9] was 105 % of control and the T/C [10] was 105 % of control.
In the case of `OCCN1CCN(CC/C=C2/c3ccccc3Sc3ccc(C(F)(F)F)cc32)CC1`, the T/C (dose: 10.0 mg/kg/injection, schedule: Q04DX003 (ip), vehicle: saline) is reported as 115 % of control and 123 % of control, the T/C (dose: 20.0 mg/kg/injection, schedule: Q04DX003 (ip), vehicle: saline) is reported as 115 % of control and the T/C (dose: 80.0 mg/kg/injection, schedule: Q04DX003 (ip), vehicle: saline) is reported as 91 % of control.
With `O=C(Nc1cccc(C(F)(F)F)c1)Oc1ccc(Cl)c2cccnc12` the T/C [3] was 99 % of control, the T/C [4] was 98 % of control and the T/C [5] was 105 % of control.
In the case of `C=C(C)CCC(N)C(=O)O` (stereo unspecified), the T/C [11] is reported as 107 % of control, the T/C [12] is reported as 104 % of control and the T/C [13] is reported as 100 % of control.
In the case of `C[C@]12CCCC[C@@H]1CC[C@@H]1[C@@H]2CC[C@]2(C)[C@@H](N(CCO)CCCO)CC[C@@H]12`, the T/C (dose: 12.5 mg/kg/injection, schedule: Q01DX009 (ip), vehicle: Klucel (hydroxypropylcellulose) (HPC)) is reported as 93 % of control, the T/C (dose: 25.0 mg/kg/injection, schedule: Q01DX009 (ip), vehicle: Klucel (hydroxypropylcellulose) (HPC)) is reported as 99 % of control and the T/C (dose: 50.0 mg/kg/injection, schedule: Q01DX009 (ip), vehicle: Klucel (hydroxypropylcellulose) (HPC)) is reported as 88 % of control.
For `O=[N+]([O-])c1cccn2nc(COCCO)nc12`, the T/C (dose: 12.5 mg/kg/injection, schedule: Q01DX005 (ip), vehicle: saline with Tween-80) was 97 % of control, the T/C (dose: 25.0 mg/kg/injection, schedule: Q01DX005 (ip), vehicle: saline with Tween-80) was 94 % of control and the T/C [14] was 97 % of control. The T/C [1] was 113 % of control and the T/C [2] was 109 % of control.
In the case of `CC1(C)CSCC(C)(C)C2(C=CC=CC=N2)C1=O` (stereo unspecified), the T/C [15] is reported as 107 % of control and the T/C [16] is reported as 115 % of control.
With `O=[N+]([O-])c1ccc(Cl)c(S(=O)(=O)Cl)c1` the T/C [14] was 97 % of control, the T/C [17] was 88 % of control and the T/C [18] was 92 % of control.
`CCc1nc(-c2ccccc2)nc2c1nc(Cc1ccccc1)n2Nc1ccccc1` was tested, and the T/C (dose: 100.0 mg/kg/injection, schedule: Q01DX001 (ip), vehicle: Klucel (hydroxypropylcellulose) (HPC)) was 88 % of control.
For `FC(F)(F)c1nc(SCc2ccc(Cl)cc2)n[nH]1`, the T/C (dose: 30.0 mg/kg/injection, schedule: Q01DX005 (ip), vehicle: Klucel (hydroxypropylcellulose) (HPC)) was 103 % of control, the T/C (dose: 60.0 mg/kg/injection, schedule: Q01DX005 (ip), vehicle: Klucel (hydroxypropylcellulose) (HPC)) was 96 % of control and the T/C (dose: 120.0 mg/kg/injection, schedule: Q01DX005 (ip), vehicle: Klucel (hydroxypropylcellulose) (HPC)) was 98 % of control. For the same compound, the T/C (dose: 240.0 mg/kg/injection, schedule: Q01DX005 (ip), vehicle: Klucel (hydroxypropylcellulose) (HPC)) was 102 % of control.
In the case of `O=C(O)CN=C1C=CC(=NCC(=O)O)C=C1`, the T/C [15] is reported as 109 % of control and the T/C [16] is reported as 108 % of control.
With `CS/C(=C\C=Nc1ccccc1)c1ccccc1` the T/C [19] was 103 % of control, the T/C [20] was 100 % of control and the T/C [21] was 109 % of control.
`Cc1cc2nc3c(=O)[nH]c(=O)nc-3n(CCOC(=O)CCC(=O)O)c2cc1C` was tested, and the T/C (dose: 100.0 mg/kg/injection, schedule: Q04DX003 (ip), vehicle: saline sonified) was 104 % of control and the T/C (dose: 200.0 mg/kg/injection, schedule: Q04DX003 (ip), vehicle: saline sonified) was 114 % of control.
With `COCCN[C@@H]1C[C@@](C)(O)Cc2cc3c(c(O)c21)C(=O)c1c(O)cc2c(c1C3=O)O[C@H]1O[C@]2(C)[C@@H](O)[C@H](N(C)C)[C@H]1O` the T/C (dose: 2.5 mg/kg/injection, schedule: Q01DX009 (ip), vehicle: other) was 105 % of control, the T/C (dose: 5.0 mg/kg/injection, schedule: Q01DX009 (ip), vehicle: other) was 105 % of control and the T/C (dose: 7.5 mg/kg/injection, schedule: Q01DX009 (ip), vehicle: other) was 120 % of control. The T/C (dose: 10.0 mg/kg/injection, schedule: Q01DX009 (ip), vehicle: other) was 111 % of control and the T/C (dose: 60.0 mg/kg/injection, schedule: Q01DX009 (ip), vehicle: other) was 154 % of control.
For `CC1=CC(=O)N2CC(=O)N(C)c3ccc(Cl)cc3C2(c2ccccc2)O1` (stereo unspecified), the T/C [15] was 104 % of control, the T/C [16] was 92 % of control and the T/C [22] was 92 % of control.
For `Fc1ccc(N2C(c3ccccc3)=N[C@@H](N3CCOCC3)[C@@H]2N2CCOCC2)cc1`, the T/C [15] was 102 % of control, the T/C [16] was 100 % of control and the T/C [22] was 93 % of control.
`C=C[Si](C)(C)c1ccc([Si](C)(C)C=C)cc1` was tested, and the T/C (dose: 6.25 mg/kg/injection, schedule: Q01DX009 (ip), vehicle: saline) was 107 % of control, the T/C [11] was 105 % of control and the T/C [12] was 117 % of control. The T/C [23] was 97 % of control and the T/C [24] was 99 % of control.
With `Cc1ccc(-n2c(O)c(N=Nc3ccc(Br)cc3)c(=O)n(-c3ccc(Br)cc3)c2=S)cc1` the T/C [19] was 96 % of control, the T/C [20] was 99 % of control and the T/C [21] was 94 % of control.
`CCn1c2ccccc2c2cc(NC(=O)NC(=O)c3ccccc3)ccc21` was tested, and the T/C [14] was 90 % of control, the T/C [17] was 90 % of control and the T/C [18] was 87 % of control.
`NNC(=O)CNC(=O)Nc1cccc(C(F)(F)F)c1` was tested, and the T/C [25] was 100 % of control, the T/C [26] was 92 % of control and the T/C [27] was 100 % of control.
`CCCCCCCCCCCCCCCC(=O)OCC(COP(=O)(O)OCC(COC(=O)CCCCCCCCCCCCCCC)OC(=O)CCCCCCCCCCCCCCC)OC(=O)CCCCCCCCCCCCCCC` (stereo unspecified) was tested, and the T/C [13] was 98 % of control, the T/C [23] was 100 % of control and the T/C [24] was 101 % of control.
With `O=C(/N=C1\N=Nc2nc(C(C(=O)c3cccs3)c3nc4n(c3O)/C(=N/C(=O)Nc3ccc(Cl)cc3)N=N4)c(O)n21)Nc1ccc(Cl)cc1` (stereo unspecified) the T/C [3] was 95 % of control, the T/C [4] was 95 % of control and the T/C [5] was 100 % of control.
For `Cc1ccc(S(=O)(=O)C(=O)N2CCN(C(=O)S(=O)(=O)c3ccc(C)cc3)CC2)cc1`, the T/C [25] was 100 % of control, the T/C [26] was 107 % of control and the T/C [27] was 109 % of control.
For `CC(=O)NCCc1nc(-c2nc(C(=O)NCCC(C)C)cs2)cs1`, the T/C [6] was 92 % of control, the T/C [7] was 94 % of control and the T/C [8] was 98 % of control. For the same compound, the T/C [9] was 102 % of control and the T/C [10] was 115 % of control.
